According to patent US20150351390A1, “COMPOSITIONS AND METHODS FOR AUXIN-ANALOG CONJUGATION” (PIONEER HI-BRED INTERNATIONAL, INC., priority 2012, published 2015):

System: soybean seedlings
Test: Soybean seedling response to spot infiltrated auxins and conjugates; on 1st trifoliate leaf curl: key: 0 = no phenotype; +/− = threshold
Format: in vivo
Conditions: for 1st trifoliate leaf curl: spot infiltration

O=C(O)COc1ccc(Cl)cc1Cl [2,4-D, 2,4-dichlorophenoxyacetic acid]
1st trifoliate leaf curl (100 μM): 0
1st trifoliate leaf curl (250 μM): 0
1st trifoliate leaf curl (500 μM): 0
Plant response phenotype, soybean (100, 250 & 500 μM, result in words): increased auxinic response ranging from mild to extreme epinasty
